Test results reported in patent US20240352000A1, “NOVEL PYRIMIDINE-2,4-DIAMINE DERIVATIVES, PREPARATION METHOD THEREFOR, AND PHARMACEUTICAL COMPOSITION CONTAINING SAME AS ACTIVE INGREDIENT FOR PREVENTION OR TREATMENT OF CANCER” (KOREA RESEARCH INSTITUTE OF CHEMICAL TECHNOLOGY, priority 2021, published 2024).

What was measured:
[1] = tested on: Ba/F3 EGFR del19/T790M/C797S; assay: CellTiter-Glo cell viability, Ba/F3 EGFR del19/T790M/C797S; assay type: cell-based; details: 72 hours
Method: An experiment to measure the activity of the compounds of the present invention against the mutant Ba/F3 EGFR cell line was performed as follows using the CellTiter-Glo system sold by Promega. The CellTiter-Glo assay is a method to confirm the cell viability by measuring ATP present in cells in cell culture. For the Ba/F3 EGFR del19, Ba/F3 EGFR del19/T790M, Ba/F3 del19/T790M/C797S mutant cell line, a cell line provided by Crown Bioscience was purchased and used. The Ba/F3 EGFR del19, Ba/F3 EGFR del19/T790M, Ba/F3 del19/T790M/C797S mutant cell line was cultured in RPMI containing 10% FBS and 1% penicillin-streptomycin with 1 μg of puromycin in an incubator at 37° C. and 5% CO2.
(§1) Analysis of the inhibitory ability effect of the compounds against EGFR was conducted according to the following analysis reaction recipe.
(§2) 2500 cells/90 μL were passaged and cultured in a 96-well cell culture plate, and after 24 hours, treated with the compound represented by Formula 1 at a concentration of 0, 0.01, 0.03, 0.1, 0.3, 1, 3, and 10 (μM). After reaction for 72 hours, the plate treated with the compound was left at room temperature for 30 minutes, then further treated with 100 μl of reagent, and shaken at room temperature for 10 minutes. Finally, the ratio of fluorescence values at 570 nm was obtained using the equipment to quantitatively measure and confirmed the inhibitory ability of the compounds. The measurement values measured at eight compound concentrations were analyzed using the Prism program (version 5.01, Graphpad Software, Inc.), and the IC50 value, which is an indicator of the inhibitory ability of the compound, was calculated.

HER2 A775_G776insYVMA = HER2 A775_G776insYVMA (Homo sapiens (Human), UniProt P04626, INS775YVMA); assay: HTRF enzyme assay, HER2 mutant enzyme; assay type: biochemical; details: recombinant enzyme, 37° C. 2 hours
Chain of HER2 A775_G776insYVMA (P04626 other isoform, or with tags, fused parts or gaps del 1-675/ins YVMA behind 775 limits assumed): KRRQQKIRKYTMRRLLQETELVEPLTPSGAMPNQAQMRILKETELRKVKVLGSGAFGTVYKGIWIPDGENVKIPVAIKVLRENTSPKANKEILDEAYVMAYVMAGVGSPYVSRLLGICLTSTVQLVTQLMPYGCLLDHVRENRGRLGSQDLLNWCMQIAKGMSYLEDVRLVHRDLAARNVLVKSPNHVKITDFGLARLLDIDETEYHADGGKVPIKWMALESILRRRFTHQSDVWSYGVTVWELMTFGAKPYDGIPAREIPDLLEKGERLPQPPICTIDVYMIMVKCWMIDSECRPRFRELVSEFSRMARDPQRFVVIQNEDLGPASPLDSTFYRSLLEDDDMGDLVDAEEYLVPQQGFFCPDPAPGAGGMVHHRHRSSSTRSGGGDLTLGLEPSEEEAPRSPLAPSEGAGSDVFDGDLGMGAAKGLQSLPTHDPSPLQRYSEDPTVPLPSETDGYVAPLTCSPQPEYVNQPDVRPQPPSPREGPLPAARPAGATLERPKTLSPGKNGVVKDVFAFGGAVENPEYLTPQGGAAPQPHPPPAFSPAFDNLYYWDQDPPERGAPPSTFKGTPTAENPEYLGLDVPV
Method: An experiment to measure the activity of the compounds of the present invention against HER mutant enzymes was performed as follows using the HTRF system sold by Cisbio. For the HER2 mutant enzyme, HER2 A775_G776insYVMA mutant enzyme, a recombinant protein provided by Carna Biosciences was purchased and used.
(§3) The composition of the assay buffer used for measuring the activity was 50 mM Tris-HCl pH 7.5, 100 mM NaCl, 7.5 mM MgCl2, 3 mM KCl, 0.01% Tween 20, 0.1% BSA, and 1 mM DTT. Here, an enzyme reaction was performed using with ATP at a concentration of […] and a peptide substrate labeled biotin at a concentration of […]. Analysis of the inhibitory effect of the compounds against the HER2 A775_G776insYVMA mutant activity was conducted according to the following analysis reaction recipe. • Component 1: 4 μL of a HER2 A775_G776insYVMA mutant enzyme • Component 2: 2 μL of a compound solution • Component 3: 4 μL of ATP and a peptide labeled with biotin
(§4) The enzyme reaction was started by first mixing Component 1 and Component 2 and then adding Component 3. After reaction at 37° C. for 2 hours, […] of measurement solution consisting of streptavidin-XL665 and europium-labeled anti-phosphotyrosine antibody provided by Cisbio was added to the enzyme reaction solution and reacted at room temperature for 1 hour. Finally, the ratio of fluorescence values at 615 nm and 665 nm was obtained using the Envision equipment from Perkin-Elmer to quantitatively measure the enzyme activity and confirmed the inhibitory ability of the compounds. The measurement values measured at seven compound concentrations were analyzed using the Prism program (version 5.01, Graphpad Software, Inc.), and the IC50 value, which is an indicator of the inhibitory ability of the compound, was calculated.

EGFR del19/T790M/C797S = EGFR del19/T790M/C797S (Homo sapiens (Human), UniProt P00533, C797S/DEL746-750/T790M); assay: HTRF enzyme assay, EGFR del19/T790M/C797S mutant enzyme; assay type: biochemical; details: enzyme from SignalChem, 37° C. 2 hours
Chain of EGFR del19/T790M/C797S (P00533 other isoform, or with tags, fused parts or gaps T790M/C797S/del 1-694/del 746-750 limits assumed): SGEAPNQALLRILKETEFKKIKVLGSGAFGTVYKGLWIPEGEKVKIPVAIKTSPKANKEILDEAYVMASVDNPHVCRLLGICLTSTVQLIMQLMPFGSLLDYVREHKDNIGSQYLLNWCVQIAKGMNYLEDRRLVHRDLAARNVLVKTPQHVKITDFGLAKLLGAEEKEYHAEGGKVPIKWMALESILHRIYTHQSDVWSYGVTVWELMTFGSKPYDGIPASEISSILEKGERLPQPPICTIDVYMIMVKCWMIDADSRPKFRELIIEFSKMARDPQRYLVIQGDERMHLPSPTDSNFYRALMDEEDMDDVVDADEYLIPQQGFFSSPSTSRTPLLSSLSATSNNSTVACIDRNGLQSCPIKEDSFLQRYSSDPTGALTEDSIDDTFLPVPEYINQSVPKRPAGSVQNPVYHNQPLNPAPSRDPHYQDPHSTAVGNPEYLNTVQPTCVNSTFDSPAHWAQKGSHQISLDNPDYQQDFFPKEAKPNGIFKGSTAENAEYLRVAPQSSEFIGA
Method: (§5) An experiment to measure the activity of the compounds of the present invention against EGFR mutant enzymes was performed as follows using the HTRF system sold by Cisbio. For the EGFR del19/T790M mutant enzyme, a recombinant protein provided by Carna Biosciences was purchased and used, and for the EGFR del19/T790M/C797S mutant enzyme, a protein provided by SignalChem was purchased and used as an enzyme source.
as §3, with “performed using ATP at” for “performed using with ATP at”, “substrate labeled with biotin at” for “substrate labeled biotin at”, “against the EGFR activity was” for “against the HER2 A775_G776insYVMA mutant activity was”, “μL of an EGFR mutant enzyme” for “μL of a HER2 A775_G776insYVMA mutant enzyme”
as §4

Ba/F3 EGFR L858R/T790M = assay: CellTiter-Glo cell viability, Ba/F3 EGFR L858R/T790M; assay type: cell-based; details: 72 hours
Method: (§6) An experiment to measure the activity of the compounds of the present invention against the mutant Ba/F3 EGFR cell line was performed as follows using the CellTiter-Glo system sold by Promega. The CellTiter-Glo assay is a method to confirm the cell viability by measuring ATP present in cells in cell culture. The Ba/F3 EGFR L858R, Ba/F3 EGFR L858R/T790M, Ba/F3 EGFR L858R/T790M/C797S mutant cell line was used. The Ba/F3 EGFR L858R, Ba/F3 EGFR L858R/T790M, and Ba/F3 EGFR L858R/T790M/C797S mutant cell lines was cultured in RPMI containing 10% FBS and 1% penicillin-streptomycin with 1 μg of puromycin in an incubator at 37° C. and 5% CO2.
as §1
as §2, with “μl” for “μL”

Ba/F3 EGFR L858R = assay: CellTiter-Glo cell viability, Ba/F3 EGFR L858R; assay type: cell-based; details: 72 hours
Method: as §6, §1
as §2, with “μl” for “μL”

EGFR del19/T790M = EGFR del19/T790M (Homo sapiens (Human), UniProt P00533, DEL746-750/T790M); assay: HTRF enzyme assay, EGFR del19/T790M mutant enzyme; assay type: biochemical; details: recombinant enzyme, 37° C. 2 hours
Chain of EGFR del19/T790M (P00533 other isoform, or with tags, fused parts or gaps T790M/del 1-668/del 746-750 limits assumed): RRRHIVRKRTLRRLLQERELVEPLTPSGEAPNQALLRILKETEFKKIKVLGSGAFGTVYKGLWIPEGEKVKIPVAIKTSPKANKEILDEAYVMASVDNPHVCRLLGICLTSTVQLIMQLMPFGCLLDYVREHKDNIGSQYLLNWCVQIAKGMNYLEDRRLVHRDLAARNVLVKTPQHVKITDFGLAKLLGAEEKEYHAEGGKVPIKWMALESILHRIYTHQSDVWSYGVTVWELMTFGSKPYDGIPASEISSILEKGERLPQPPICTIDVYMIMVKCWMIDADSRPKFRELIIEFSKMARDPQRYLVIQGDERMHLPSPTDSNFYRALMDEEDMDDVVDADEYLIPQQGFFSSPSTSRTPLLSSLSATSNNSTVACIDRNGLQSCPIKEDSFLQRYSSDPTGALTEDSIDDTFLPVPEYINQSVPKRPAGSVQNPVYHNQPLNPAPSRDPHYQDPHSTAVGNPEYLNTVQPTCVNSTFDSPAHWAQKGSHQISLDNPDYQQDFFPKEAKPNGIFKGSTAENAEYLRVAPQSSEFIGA
Method: as §5
as §3, with “performed using ATP at” for “performed using with ATP at”, “substrate labeled with biotin at” for “substrate labeled biotin at”, “against the EGFR activity was” for “against the HER2 A775_G776insYVMA mutant activity was”, “μL of an EGFR mutant enzyme” for “μL of a HER2 A775_G776insYVMA mutant enzyme”
as §4

IC50 [1] [nM] | IC50 (HER2 A775_G776insYVMA) [nM] | IC50 (EGFR del19/T790M/C797S) [nM] | IC50 (Ba/F3 EGFR L858R/T790M) [nM] | IC50 (Ba/F3 EGFR L858R) [nM] | IC50 (EGFR del19/T790M) [nM] | SMILES
< 30 | 3 | < 1 | < 30 | < 30 | < 1 | COc1cc(N2CCC(N3CCN(C)CC3)CC2)ccc1Nc1ncc(Cl)c(Nc2cccc3c2N(S(C)(=O)=O)CCC3)n1 [Example 5, 5-chloro-N2-(2-methoxy-4-(4-(4-methylpiperazin-1-yl)piperidin-1-yl)phenyl)-N4-(1-(methylsulfonyl)-1,2,3,4-tetrahydroquinolin-8-yl)pyrimidine-2,4-diamine]
< 100 | 1 | < 1 | < 30 | < 30 | < 1 | COc1cc(N2CCC(N3CCN(C)CC3)CC2)ccc1Nc1ncc(Cl)c(Nc2cccc3c2N(S(C)(=O)=O)CC3)n1 [Example 2, 5-chloro-N2-(2-methoxy-4-(4-(4-methylpiperazin-1-yl)piperidin-1-yl)phenyl)-N4-(1-(methylsulfonyl)indolin-7-yl)pyrimidine-2,4-diamine]
